Assay results reported in patent US20250205260A1, “ADJUNCTIVE TREATMENT OF MYCOBACTERIAL DISEASES” (UNIVERSITY OF SOUTHERN CALIFORNIA, priority 2022, published 2025).
In brackets after ≈: the same amount, converted by molar mass. Read-outs that look alike come from different tables or passages of the source.

Columns and labels:
[1] = system: M. smegmatis; conditions: cited from earlier work
[2] = system: M. tuberculosis biofilm; assay: M. tuberculosis biofilm formation inhibition (crystal violet staining); assay type: cell-based, Mycobacterium tuberculosis; conditions: for overall activity against M. tuberculosis: biofilm inhibition, normal growth inhibition and antibiotic synergism assays, preliminary results
Method: FIG. 1A-D. Anti-M. tuberculosis biofilm activity of 6-treAz (6-azido-6-deoxy-D-trehalose). The effects of various concentrations of 6-treAz treatment on M. tuberculosis biofilms were monitored by crystal violet (CV) staining assay (A and B). […] The effect of 6-treAz on TreS mediated maltose production. Y-axis is the amount of maltose produced (D).
Planktonic growth and biofilm assays. Evaluation of planktonic growth and biofilm formation inhibition for M. smegmatis was carried out as previously reported for other trehalose analogues (Carbohydr. Res. 2017, 450, 60-66). Evaluation of planktonic growth and biofilm formation inhibition for M. tuberculosis was carried out as previously reported for 6-TreAz (Nat. Commun., 2019, 2928-2928).

[3] = system: M. tuberculosis; conditions: cited from earlier work
[4] = system: M. smegmatis biofilm; assay: M. smegmatis biofilm formation inhibition; assay type: cell-based, Mycobacterium smegmatis
[5] = system: H37Rv lab strain (M. tuberculosis); assay type: cell-based, Mycobacterium tuberculosis; conditions: for IC95 2-treNH2: antibiotic in combination with 2-treNH2; for IC95 4-treNH2: antibiotic in combination with 4-treNH2; for IC95 6-treNH2: antibiotic in combination with 6-treNH2
[6] = system: M. tuberculosis; assay: M. tuberculosis planktonic growth inhibition; assay type: cell-based, Mycobacterium tuberculosis
[7] = target: TreS (trehalose synthase) (Mycobacterium tuberculosis, UniProt P9WQ19); assay: In vitro TreS assay (maltose production, LC-MS); assay type: biochemical, M. tuberculosis; conditions: 100 μM compound, in vitro TreS enzyme reaction
TreS (trehalose synthase), sequence (P9WQ19 whole entry, looked up): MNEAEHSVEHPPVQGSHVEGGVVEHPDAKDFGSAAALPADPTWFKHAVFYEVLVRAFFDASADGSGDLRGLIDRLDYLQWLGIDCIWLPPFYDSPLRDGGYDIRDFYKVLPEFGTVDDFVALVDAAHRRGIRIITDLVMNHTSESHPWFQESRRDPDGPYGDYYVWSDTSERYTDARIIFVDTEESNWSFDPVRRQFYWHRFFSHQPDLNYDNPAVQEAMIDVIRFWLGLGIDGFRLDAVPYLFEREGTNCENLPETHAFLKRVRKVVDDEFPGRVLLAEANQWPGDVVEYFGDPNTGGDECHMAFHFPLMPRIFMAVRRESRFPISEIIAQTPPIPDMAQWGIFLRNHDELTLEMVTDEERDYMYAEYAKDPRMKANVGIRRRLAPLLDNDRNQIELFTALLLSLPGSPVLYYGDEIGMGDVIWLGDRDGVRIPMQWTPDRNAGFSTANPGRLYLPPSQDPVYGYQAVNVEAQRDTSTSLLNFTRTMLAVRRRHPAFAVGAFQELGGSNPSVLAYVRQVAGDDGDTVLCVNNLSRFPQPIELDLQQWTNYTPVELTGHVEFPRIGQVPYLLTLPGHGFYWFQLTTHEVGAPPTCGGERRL
Method: In vitro TreS assay. TreS activity was measured using a 100 μL in vitro enzyme reaction containing 40 mM MOPS (pH 7.0), 10 mM trehalose, and 20 ng of purified TreS enzyme in the presence or absence of 6-treAz or validamycin A (a known TreS inhibitor). The reaction was initiated by adding TreS enzyme, incubated at 37° C., and then quenched by heating and adding acetonitrile containing 0.2% formic acid. After centrifugation, supernatants were used for LC-MS to quantify maltose product.

[8] = system: M. smegmatis biofilm; conditions: cited from earlier work
[9] = system: M. aurum; conditions: cited from earlier work
[10] = system: M. tuberculosis trehalose catalytic shift (metabolome); assay: Metabolomics profiling / trehalose catalytic shift; assay type: cell-based, Mycobacterium tuberculosis; conditions: M. tuberculosis biofilm, trehalose accumulation, depletion of maltose, glucose-P, sedoheptulose-P
[11] = M. tuberculosis IC95 shift assay

## [N-]=[N+]=N[C@H]1[C@@H](O[C@H]2O[C@H](CO)[C@@H](O)[C@H](O)[C@H]2O)O[C@H](CO)[C@@H](O)[C@@H]1O [2-TreAz, (2R,3R,4S,5S,6R)-2-(((2R,3R,4R,5S,6R)-3-azido-4,5-dihydroxy-6-(hydroxymethyl)tetrahydro-2H-pyran-2-yl)oxy)-6-(hydroxymethyl)tetrahydro-2H-pyran-3,4,5-triol]
[1]
  inhibition of M. smegmatis planktonic growth (previous research): exhibited planktonic growth inhibition
[2]
  overall activity against M. tuberculosis: top candidate

## N[C@H]1[C@@H](O[C@H]2O[C@H](CO)[C@@H](O)[C@H](O)[C@H]2O)O[C@H](CO)[C@@H](O)[C@@H]1O [2-TreNH2, (2R,3R,4S,5S,6R)-2-(((2R,3R,4R,5S,6R)-3-amino-4,5-dihydroxy-6-(hydroxymethyl)tetrahydro-2H-pyran-2-yl)oxy)-6-(hydroxymethyl)tetrahydro-2H-pyran-3,4,5-triol]
[3]
  inhibition of M. tuberculosis planktonic growth (previous research): exhibited inhibition
[4]
  inhibition of M. smegmatis biofilm formation: inhibit
[2]
  inhibition of M. tuberculosis biofilm formation: inhibit
[5]; H37Rv, INH, RIF or BDQ, […]
  antimycobacterial synergy with TB antibiotics: antimicrobial synergy against H37Rv level similar to that of ΔtreS
[5]; [11]
  effect of co-treatment on IC95 values of isoniazid (INH) or rifampicin (RIF): significantly reduced
  reduction of IC95 value of bedaquiline (BDQ) by co-treatment: not

## [N-]=[N+]=N[C@@H]1[C@@H](O[C@H]2O[C@H](CO)[C@@H](O)[C@H](O)[C@H]2O)O[C@H](CO)[C@@H](O)[C@@H]1O [2-epi-TreAz, (2R,3R,4S,5S,6R)-2-(((2R,3S,4R,5S,6R)-3-azido-4,5-dihydroxy-6-(hydroxymethyl)tetrahydro-2H-pyran-2-yl)oxy)-6-(hydroxymethyl)tetrahydro-2H-pyran-3,4,5-triol]
[4]
  inhibition of M. smegmatis biofilm formation: selectively inhibits
[4]; at 1 mM
  inhibition of M. smegmatis biofilm formation: selectively blocks
[2]
  inhibition of M. tuberculosis biofilm formation: can inhibit
  overall activity against M. tuberculosis: most potent
[2]; at 1 mM
  inhibition of M. tuberculosis biofilm formation: completely blocks
[2]; listed as Epi-2-TreAz
  inhibition of M. tuberculosis biofilm formation: completely inhibits
[6]
  inhibition of M. tuberculosis planktonic growth: can inhibit
[6]; at 1 mM
  inhibition of M. tuberculosis planktonic growth: completely blocks
[6]; listed as Epi-2-TreAz
  inhibition of M. tuberculosis planktonic growth: completely inhibits

## N[C@@H]1[C@@H](O[C@H]2O[C@H](CO)[C@@H](O)[C@H](O)[C@H]2O)O[C@H](CO)[C@@H](O)[C@@H]1O [2-epi-TreNH2, (2R,3R,4S,5S,6R)-2-(((2R,3S,4R,5S,6R)-3-amino-4,5-dihydroxy-6-(hydroxymethyl)tetrahydro-2H-pyran-2-yl)oxy)-6-(hydroxymethyl)tetrahydro-2H-pyran-3,4,5-triol]
[4]
  inhibition of M. smegmatis biofilm formation: no inhibitory effects
[2]
  inhibition of M. tuberculosis biofilm formation: do not
[6]
  inhibition of M. tuberculosis planktonic growth: no inhibitory effects

## [N-]=[N+]=N[C@@H]1[C@@H](O)[C@@H](O[C@H]2O[C@H](CO)[C@@H](O)[C@H](O)[C@H]2O)O[C@H](CO)[C@H]1O [3-TreAz, (2R,3R,4S,5S,6R)-2-(((2R,3R,4S,5S,6R)-4-azido-3,5-dihydroxy-6-(hydroxymethyl)tetrahydro-2H-pyran-2-yl)oxy)-6-(hydroxymethyl)tetrahydro-2H-pyran-3,4,5-triol]
[1]
  inhibition of M. smegmatis planktonic growth (previous research): did not exhibit inhibition

## N[C@@H]1[C@@H](O)[C@@H](O[C@H]2O[C@H](CO)[C@@H](O)[C@H](O)[C@H]2O)O[C@H](CO)[C@H]1O [3-TreNH2, (2R,3R,4S,5S,6R)-2-(((2R,3R,4S,5S,6R)-4-amino-3,5-dihydroxy-6-(hydroxymethyl)tetrahydro-2H-pyran-2-yl)oxy)-6-(hydroxymethyl)tetrahydro-2H-pyran-3,4,5-triol]
[2]
  inhibition of M. tuberculosis biofilm formation: moderate inhibitor

## [N-]=[N+]=N[C@H]1[C@H](O)[C@@H](O)[C@@H](O[C@H]2O[C@H](CO)[C@@H](O)[C@H](O)[C@H]2O)O[C@@H]1CO [4-TreAz, (2R,3R,4S,5S,6R)-2-(((2R,3R,4S,5S,6S)-5-azido-3,4-dihydroxy-6-(hydroxymethyl)tetrahydro-2H-pyran-2-yl)oxy)-6-(hydroxymethyl)tetrahydro-2H-pyran-3,4,5-triol]
[4]; biofilm inhibition, normal growth inhibition and antibiotic synergism assays
  overall activity against M. smegmatis: did not show activity
[1]
  inhibition of M. smegmatis planktonic growth (previous research): did not exhibit inhibition
[2]
  overall activity against M. tuberculosis: did not show activity

## N[C@H]1[C@H](O)[C@@H](O)[C@@H](O[C@H]2O[C@H](CO)[C@@H](O)[C@H](O)[C@H]2O)O[C@@H]1CO [4-TreNH2, (2R,3R,4S,5S,6R)-2-(((2R,3R,4S,5S,6S)-5-amino-3,4-dihydroxy-6-(hydroxymethyl)tetrahydro-2H-pyran-2-yl)oxy)-6-(hydroxymethyl)tetrahydro-2H-pyran-3,4,5-triol]
[4]
  inhibition of M. smegmatis biofilm formation: did not exhibit activity
[1]
  inhibition of M. smegmatis planktonic growth (previous research): did not exhibit inhibition
[2]
  inhibition of M. tuberculosis biofilm formation: inhibit
[6]
  inhibition of M. tuberculosis planktonic growth: inhibits

## [N-]=[N+]=N[C@@H]1[C@H](O)[C@@H](O)[C@@H](O[C@H]2O[C@H](CO)[C@@H](O)[C@H](O)[C@H]2O)O[C@@H]1CO [4-epi-TreAz, (2R,3R,4S,5S,6R)-2-(((2R,3R,4S,5R,6S)-5-azido-3,4-dihydroxy-6-(hydroxymethyl)tetrahydro-2H-pyran-2-yl)oxy)-6-(hydroxymethyl)tetrahydro-2H-pyran-3,4,5-triol]
[4]
  inhibition of M. smegmatis biofilm formation: no inhibitory effects
[2]
  inhibition of M. tuberculosis biofilm formation: do not
[6]
  inhibition of M. tuberculosis planktonic growth: no inhibitory effects

## N[C@@H]1[C@H](O)[C@@H](O)[C@@H](O[C@H]2O[C@H](CO)[C@@H](O)[C@H](O)[C@H]2O)O[C@@H]1CO [4-epi-TreNH2, (2R,3R,4S,5S,6R)-2-(((2R,3R,4S,5R,6S)-5-amino-3,4-dihydroxy-6-(hydroxymethyl)tetrahydro-2H-pyran-2-yl)oxy)-6-(hydroxymethyl)tetrahydro-2H-pyran-3,4,5-triol]
[4]
  inhibition of M. smegmatis biofilm formation: no inhibitory effects
[2]
  inhibition of M. tuberculosis biofilm formation: do not
[6]
  inhibition of M. tuberculosis planktonic growth: no inhibitory effects

## [N-]=[N+]=NC[C@H]1O[C@H](O[C@H]2O[C@H](CO)[C@@H](O)[C@H](O)[C@H]2O)[C@H](O)[C@@H](O)[C@@H]1O [6-TreAz, (2R,3S,4S,5R,6R)-2-(azidomethyl)-6-(((2R,3R,4S,5S,6R)-3,4,5-trihydroxy-6-(hydroxymethyl)tetrahydro-2H-pyran-2-yl)oxy)tetrahydro-2H-pyran-3,4,5-triol]
[3]
  inhibition of M. tuberculosis planktonic growth (previous research): inhibit growth
[7]
  TreS mediated maltose production: abolished
[8]
  inhibition of M. smegmatis biofilm formation (previously known): known to inhibit
[1]
  inhibition of M. smegmatis planktonic growth (previous research): inhibit growth
[9]
  inhibition of M. aurum growth (previous research): inhibit growth
[2]
  inhibition of M. tuberculosis biofilm formation: selective inhibitory activity
[2]; WT biofilm culture
  concentration that significantly interfered with M. tuberculosis biofilm formation: at least 100 M
[6]
  inhibition of M. tuberculosis planktonic growth: no discernible effects
[10]
  inhibition of the trehalose catalytic shift: blocked
[10]; listed as 6-treAz
  inhibition of the trehalose catalytic shift: dose-dependent inhibition

## NC[C@H]1O[C@H](O[C@H]2O[C@H](CO)[C@@H](O)[C@H](O)[C@H]2O)[C@H](O)[C@@H](O)[C@@H]1O [6-TreNH2, (2R,3S,4S,5R,6R)-2-(aminomethyl)-6-(((2R,3R,4S,5S,6R)-3,4,5-trihydroxy-6-(hydroxymethyl)tetrahydro-2H-pyran-2-yl)oxy)tetrahydro-2H-pyran-3,4,5-triol]
[3]
  inhibition of M. tuberculosis planktonic growth (previous research): did not exhibit inhibition
[2]
  inhibition of M. tuberculosis biofilm formation: no inhibitory effect
[6]
  inhibition of M. tuberculosis planktonic growth: no inhibitory effect

## COc1nc2ccc(Br)cc2cc1[C@@H](c1ccccc1)[C@@](O)(CCN(C)C)c1cccc2ccccc12 [BDQ, bedaquiline]
[5]
  IC95 WT: 0.59 µg/mL (≈ 1.06 µM)
[5]; H37Rv
  IC95 2-treNH2: 0.78 µg/mL
  IC95 4-treNH2: 0.39 µg/mL
  IC95 6-treNH2: 0.57 µg/mL

## NNC(=O)c1ccncc1 [INH, isoniazid]
[5]
  IC95 WT: 0.28 µg/mL (≈ 2.04 µM)
[5]; H37Rv
  IC95 2-treNH2: 0.21 µg/mL
  IC95 4-treNH2: 0.44 µg/mL
  IC95 6-treNH2: 0.33 µg/mL

## CO[C@H]1/C=C/O[C@@]2(C)Oc3c(C)c(O)c4c(O)c(c(/C=N/N5CCN(C)CC5)c(O)c4c3C2=O)NC(=O)/C(C)=C\C=C\[C@H](C)[C@H](O)[C@@H](C)[C@@H](O)[C@@H](C)[C@H](OC(C)=O)[C@@H]1C [RIF, rifampicin]
[5]
  IC95 WT: 0.18 µg/mL (≈ 0.219 µM)
[5]; H37Rv
  IC95 2-treNH2: 0.09 µg/mL
  IC95 4-treNH2: 0.14 µg/mL
  IC95 6-treNH2: 0.24 µg/mL
